Reference: the NIST ThermoML archive (doi:10.1016/j.jct.2006.10.011)
Values joined by “and” are separate entries in the source; they are usually repeats but may differ in a detail not shown here. Equal values may be shown once.

Test: molar heat capacity at constant pressure
Details: 101.33 kPa, Crystal

O [water]
Details | molar heat capacity at constant pressure
0.4719 K, Low-temperature adiabatic | 4.834e-06 J/K/mol
0.4841 K, Low-temperature adiabatic | 2.38e-05 J/K/mol
0.5 K, adiabatic | 2.28e-05 J/K/mol
0.5191 K, Low-temperature adiabatic | 3.571e-05 J/K/mol
0.5328 K, Low-temperature adiabatic | 2.99e-05 J/K/mol
0.5456 K, Low-temperature adiabatic | 3.104e-05 J/K/mol
0.5713 K, Low-temperature adiabatic | 3.382e-05 J/K/mol
0.5859 K, Low-temperature adiabatic | 3.177e-05 J/K/mol
0.5999 K, Low-temperature adiabatic | 3.883e-05 J/K/mol
0.6287 K, Low-temperature adiabatic | 4.342e-05 J/K/mol
0.6451 K, Low-temperature adiabatic | 3.414e-05 J/K/mol
0.6608 K, Low-temperature adiabatic | 4.582e-05 J/K/mol
0.6935 K, Low-temperature adiabatic | 5.952e-05 J/K/mol
0.7107 K, Low-temperature adiabatic | 6.565e-05 J/K/mol
0.7283 K, Low-temperature adiabatic | 7.207e-05 J/K/mol
0.764 K, Low-temperature adiabatic | 7.817e-05 J/K/mol
0.783 K, Low-temperature adiabatic | 8.554e-05 J/K/mol
0.8021 K, Low-temperature adiabatic | 9.413e-05 J/K/mol
0.8407 K, Low-temperature adiabatic | 0.0001158 J/K/mol
0.8618 K, Low-temperature adiabatic | 0.0001219 J/K/mol
0.8828 K, Low-temperature adiabatic | 0.0001311 J/K/mol
0.9245 K, Low-temperature adiabatic | 0.0001506 J/K/mol
0.9708 K, Low-temperature adiabatic | 0.000169 J/K/mol
1 K, adiabatic | 0.0001825 J/K/mol
1.015 K, Low-temperature adiabatic | 0.0001986 J/K/mol
1.04 K, Low-temperature adiabatic | 0.0002059 J/K/mol
1.066 K, Low-temperature adiabatic | 0.0002218 J/K/mol
1.116 K, Low-temperature adiabatic | 0.0002582 J/K/mol
1.146 K, Low-temperature adiabatic | 0.0002671 J/K/mol
1.173 K, Low-temperature adiabatic | 0.0002946 J/K/mol
1.228 K, Low-temperature adiabatic | 0.0003386 J/K/mol
1.261 K, Low-temperature adiabatic | 0.0003738 J/K/mol
1.292 K, Low-temperature adiabatic | 0.0004076 J/K/mol
1.352 K, Low-temperature adiabatic | 0.0004587 J/K/mol
1.388 K, Low-temperature adiabatic | 0.0004915 J/K/mol
1.485 K, Low-temperature adiabatic | 0.0006013 J/K/mol
1.5 K, adiabatic | 0.0006167 J/K/mol
1.522 K, Low-temperature adiabatic | 0.0006394 J/K/mol
1.561 K, Low-temperature adiabatic | 0.0006901 J/K/mol
1.634 K, Low-temperature adiabatic | 0.0007957 J/K/mol
1.675 K, Low-temperature adiabatic | 0.0008489 J/K/mol
1.716 K, Low-temperature adiabatic | 0.0009132 J/K/mol
1.731 K, Low-temperature adiabatic | 0.0009652 J/K/mol
1.798 K, Low-temperature adiabatic | 0.001053 J/K/mol
1.816 K, Low-temperature adiabatic | 0.001109 J/K/mol
1.843 K, Low-temperature adiabatic | 0.001123 J/K/mol
1.887 K, Low-temperature adiabatic | 0.001207 J/K/mol
1.904 K, Low-temperature adiabatic | 0.00125 J/K/mol
1.977 K, Low-temperature adiabatic | 0.00139 J/K/mol
1.998 K, Low-temperature adiabatic | 0.001434 J/K/mol
2 K, adiabatic | 0.001465 J/K/mol
2.027 K, Low-temperature adiabatic | 0.001484 J/K/mol
2.076 K, Low-temperature adiabatic | 0.001598 J/K/mol
2.095 K, Low-temperature adiabatic | 0.001659 J/K/mol
2.175 K, Low-temperature adiabatic | 0.00184 J/K/mol
2.2 K, Low-temperature adiabatic | 0.001902 J/K/mol
2.304 K, Low-temperature adiabatic | 0.002208 J/K/mol
2.421 K, Low-temperature adiabatic | 0.002544 J/K/mol
2.5 K, adiabatic | 0.002874 J/K/mol
2.536 K, Low-temperature adiabatic | 0.002963 J/K/mol
2.664 K, Low-temperature adiabatic | 0.003432 J/K/mol
2.791 K, Low-temperature adiabatic | 0.003994 J/K/mol
2.932 K, Low-temperature adiabatic | 0.004612 J/K/mol
3 K, adiabatic | 0.004998 J/K/mol
3.073 K, Low-temperature adiabatic | 0.005384 J/K/mol
3.228 K, Low-temperature adiabatic | 0.006206 J/K/mol
3.381 K, Low-temperature adiabatic | 0.007213 J/K/mol
3.5 K, adiabatic | 0.008013 J/K/mol
3.552 K, Low-temperature adiabatic | 0.008311 J/K/mol
3.719 K, Low-temperature adiabatic | 0.00968 J/K/mol
3.906 K, Low-temperature adiabatic | 0.01117 J/K/mol
4 K, adiabatic | 0.01212 J/K/mol
4.089 K, Low-temperature adiabatic | 0.01302 J/K/mol
4.294 K, Low-temperature adiabatic | 0.01503 J/K/mol
4.498 K, Low-temperature adiabatic | 0.01756 J/K/mol
4.5 K, adiabatic | 0.01755 J/K/mol
4.723 K, Low-temperature adiabatic | 0.02031 J/K/mol
4.947 K, Low-temperature adiabatic | 0.02384 J/K/mol
5 K, adiabatic | 0.02458 J/K/mol
5.194 K, Low-temperature adiabatic | 0.02762 J/K/mol
5.44 K, Low-temperature adiabatic | 0.03248 J/K/mol
5.5 K, adiabatic | 0.03354 J/K/mol
5.713 K, Low-temperature adiabatic | 0.03773 J/K/mol
5.985 K, Low-temperature adiabatic | 0.04456 J/K/mol
6 K, adiabatic | 0.04478 J/K/mol
6.284 K, Low-temperature adiabatic | 0.05186 J/K/mol
6.5 K, adiabatic | 0.05874 J/K/mol
6.583 K, Low-temperature adiabatic | 0.06156 J/K/mol
6.912 K, Low-temperature adiabatic | 0.07207 J/K/mol
7 K, adiabatic | 0.07583 J/K/mol
7.239 K, Low-temperature adiabatic | 0.08574 J/K/mol
7.5 K, adiabatic | 0.09651 J/K/mol
7.6 K, Low-temperature adiabatic | 0.1009 J/K/mol
7.96 K, Low-temperature adiabatic | 0.1206 J/K/mol
8 K, adiabatic | 0.1212 J/K/mol
8.354 K, Low-temperature adiabatic | 0.1416 J/K/mol
8.5 K, adiabatic | 0.1503 J/K/mol
8.75 K, Low-temperature adiabatic | 0.1684 J/K/mol
9 K, adiabatic | 0.1842 J/K/mol
9.185 K, Low-temperature adiabatic | 0.1972 J/K/mol
9.187 K, Low-temperature adiabatic | 0.1979 J/K/mol
9.5 K, adiabatic | 0.2231 J/K/mol
9.619 K, Low-temperature adiabatic | 0.2343 J/K/mol
9.645 K, Low-temperature adiabatic | 0.2352 J/K/mol
10 K, adiabatic | 0.2672 J/K/mol
10.11 K, Low-temperature adiabatic | 0.2752 J/K/mol and 0.2768 J/K/mol
10.59 K, Low-temperature adiabatic | 0.3268 J/K/mol
10.6 K, Low-temperature adiabatic | 0.3266 J/K/mol
11 K, adiabatic | 0.3709 J/K/mol
11.12 K, Low-temperature adiabatic | 0.3841 J/K/mol
11.66 K, Low-temperature adiabatic | 0.4516 J/K/mol
12 K, adiabatic | 0.4948 J/K/mol
12.23 K, Low-temperature adiabatic | 0.5267 J/K/mol
12.82 K, Low-temperature adiabatic | 0.6103 J/K/mol
13 K, adiabatic | 0.6372 J/K/mol
13.43 K, Low-temperature adiabatic | 0.7044 J/K/mol
14 K, adiabatic | 0.7967 J/K/mol
14.08 K, Low-temperature adiabatic | 0.8099 J/K/mol
14.75 K, Low-temperature adiabatic | 0.9261 J/K/mol
15 K, adiabatic | 0.9716 J/K/mol
15.46 K, Low-temperature adiabatic | 1.058 J/K/mol
16 K, adiabatic | 1.16 J/K/mol
16.19 K, Low-temperature adiabatic | 1.197 J/K/mol
16.99 K, Low-temperature adiabatic | 1.356 J/K/mol
17 K, adiabatic | 1.358 J/K/mol
17.79 K, Low-temperature adiabatic | 1.518 J/K/mol
18 K, adiabatic | 1.564 J/K/mol
18.66 K, Low-temperature adiabatic | 1.704 J/K/mol
19 K, adiabatic | 1.777 J/K/mol
19.55 K, Low-temperature adiabatic | 1.895 J/K/mol
19.6 K, Low-temperature adiabatic | 1.908 J/K/mol
20 K, adiabatic | 1.993 J/K/mol
20.58 K, Low-temperature adiabatic | 2.12 J/K/mol
21.46 K, Low-temperature adiabatic | 2.315 J/K/mol
22 K, adiabatic | 2.433 J/K/mol
22.52 K, Low-temperature adiabatic | 2.55 J/K/mol
23.59 K, Low-temperature adiabatic | 2.78 J/K/mol
24 K, adiabatic | 2.873 J/K/mol
24.75 K, Low-temperature adiabatic | 3.037 J/K/mol
25.92 K, Low-temperature adiabatic | 3.292 J/K/mol
26 K, adiabatic | 3.306 J/K/mol
27.21 K, Low-temperature adiabatic | 3.562 J/K/mol
28 K, adiabatic | 3.728 J/K/mol
28.49 K, Low-temperature adiabatic | 3.828 J/K/mol
29.94 K, Low-temperature adiabatic | 4.128 J/K/mol
30 K, adiabatic | 4.139 J/K/mol
31.38 K, Low-temperature adiabatic | 4.423 J/K/mol
32 K, adiabatic | 4.543 J/K/mol
32.99 K, Low-temperature adiabatic | 4.735 J/K/mol
34 K, adiabatic | 4.947 J/K/mol
34.59 K, Low-temperature adiabatic | 5.067 J/K/mol
36 K, adiabatic | 5.363 J/K/mol
36.02 K, Low-temperature adiabatic | 5.371 J/K/mol
37.45 K, Low-temperature adiabatic | 5.677 J/K/mol
38 K, adiabatic | 5.804 J/K/mol
